Reference: PubChem BioAssay (NCI)
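Values below derive from 48-hour exposures of cells grown in 96-well plates, with endpoints linearly interpolated between the two concentrations bracketing the appropriate inhibition level. At the GI50, growth is halved. TGI denotes the concentration required for complete inhibition of growth.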

How the values were obtained:
Assay in all cases: DTP human tumour cell line panel, 48 h
786-0 renal = tested on: 786-0 renal
OVCAR-5 ovarian = tested on: OVCAR-5 ovarian
DU-145 prostate = tested on: DU-145 prostate
SK-MEL-5 melanoma = tested on: SK-MEL-5 melanoma
COLO 205 colon = tested on: COLO 205 colon
U251 CNS = tested on: U251 CNS
NCI-H460 lung = tested on: NCI-H460 lung
HOP-92 NSCLC = tested on: HOP-92 NSCLC
SF-539 CNS = tested on: SF-539 CNS
MCF7 breast = tested on: MCF7 breast

O=C1NN=C(c2c[nH]c3ccccc23)CC1NCc1ccccc1 (centres undefined)
TGI (786-0 renal): > 100 µM
TGI (OVCAR-5 ovarian): > 100 µM
TGI (DU-145 prostate): > 100 µM
TGI (SK-MEL-5 melanoma): > 100 µM
TGI (COLO 205 colon): > 100 µM
TGI (U251 CNS): > 100 µM
TGI (NCI-H460 lung): > 100 µM
TGI (HOP-92 NSCLC): > 100 µM
TGI (SF-539 CNS): > 100 µM

C[C@@H]1C(=O)CC2(O)[C@@]13C[C@@H](OC(=O)[C@@H]3O)[C@@H](C)[C@@]21COC1=O (some centres undefined)
TGI (786-0 renal): > 100 µM
TGI (OVCAR-5 ovarian): > 100 µM
TGI (DU-145 prostate): > 100 µM
TGI (MCF7 breast): > 100 µM
TGI (SK-MEL-5 melanoma): > 100 µM
TGI (COLO 205 colon): > 100 µM
TGI (U251 CNS): > 100 µM
TGI (NCI-H460 lung): > 100 µM
TGI (SF-539 CNS): > 100 µM

Cc1cc(C)nc(NS(=O)(=O)c2ccc(Nc3c4ccccc4nc4c(C(=O)N5CCN(CCOS(C)(=O)=O)CC5)ccc(Cl)c34)cc2)n1
TGI (786-0 renal): > 100 µM
TGI (OVCAR-5 ovarian): > 100 µM
TGI (SK-MEL-5 melanoma): > 100 µM
TGI (COLO 205 colon): > 100 µM
TGI (U251 CNS): > 100 µM
TGI (NCI-H460 lung): > 100 µM
TGI (HOP-92 NSCLC): > 100 µM
TGI (SF-539 CNS): > 100 µM

CC12CCC(C/C1=N\NC(N)=O)C2(C)C (centres undefined)
TGI (786-0 renal): > 100 µM
TGI (OVCAR-5 ovarian): > 100 µM
TGI (DU-145 prostate): > 100 µM
TGI (MCF7 breast): > 100 µM
TGI (SK-MEL-5 melanoma): > 100 µM
TGI (COLO 205 colon): > 100 µM
TGI (U251 CNS): > 100 µM
TGI (NCI-H460 lung): > 100 µM
TGI (HOP-92 NSCLC): > 100 µM

NC(=O)NC(=NCc1ccccc1)NCc1ccccc1
TGI (786-0 renal): > 100 µM
TGI (SK-MEL-5 melanoma): > 100 µM
TGI (COLO 205 colon): > 100 µM
TGI (U251 CNS): > 100 µM
TGI (NCI-H460 lung): > 100 µM
TGI (HOP-92 NSCLC): > 100 µM
TGI (SF-539 CNS): > 100 µM

COC(=O)c1cc(C(=O)OC)cc(-c2ccc3c(c2)-c2nc4c(c(-c5ccc(OC)cc5)c2CC3)CCc2ccc(-c3cc(C(=O)OC)cc(C(=O)OC)c3)cc2-4)c1
TGI (786-0 renal): > 100 µM
TGI (OVCAR-5 ovarian): 31.8 µM
TGI (DU-145 prostate): > 100 µM
TGI (MCF7 breast): > 100 µM
TGI (SK-MEL-5 melanoma): > 100 µM
TGI (COLO 205 colon): > 100 µM
TGI (U251 CNS): > 100 µM
TGI (NCI-H460 lung): > 100 µM
TGI (HOP-92 NSCLC): > 100 µM

COC(=O)C(CCCCNC(=O)CNC(=O)OCc1ccccc1)NC(=O)C(CCCCNC(=O)CNC(=O)OCc1ccccc1)NC(=O)OCc1ccccc1 (centres undefined)
TGI (786-0 renal): > 100 µM
TGI (OVCAR-5 ovarian): > 100 µM
TGI (DU-145 prostate): > 100 µM
TGI (MCF7 breast): 19.1 µM
TGI (SK-MEL-5 melanoma): > 100 µM
TGI (U251 CNS): > 100 µM
TGI (NCI-H460 lung): > 100 µM

CCOP(=O)(OCC)c1cc(-c2ccccc2)ccc1N
TGI (786-0 renal): > 100 µM
TGI (OVCAR-5 ovarian): > 100 µM
TGI (DU-145 prostate): > 100 µM
TGI (MCF7 breast): > 100 µM
TGI (SK-MEL-5 melanoma): > 100 µM
TGI (COLO 205 colon): > 100 µM
TGI (U251 CNS): > 100 µM
TGI (NCI-H460 lung): > 100 µM
TGI (HOP-92 NSCLC): > 100 µM

COC(=O)C(=O)C(C(=O)C(=O)Nc1cc([N+](=O)[O-])ccc1C#N)c1nc2ccccc2[nH]c1=O (centres undefined)
TGI (786-0 renal): > 100 µM
TGI (SK-MEL-5 melanoma): > 100 µM
TGI (COLO 205 colon): > 100 µM
TGI (NCI-H460 lung): > 100 µM
TGI (HOP-92 NSCLC): > 100 µM
TGI (SF-539 CNS): > 100 µM

Brc1ccc2c(c1)-c1nc3c(cc1CC2)CCc1ccc(Br)cc1-3
TGI (786-0 renal): > 100 µM
TGI (OVCAR-5 ovarian): > 100 µM
TGI (MCF7 breast): > 100 µM
TGI (SK-MEL-5 melanoma): > 100 µM
TGI (COLO 205 colon): > 100 µM
TGI (U251 CNS): > 100 µM
TGI (NCI-H460 lung): > 100 µM
TGI (HOP-92 NSCLC): > 100 µM

CCC1C(=O)OCc2c1cc1n(c2=O)CCC12OCCO2 (centres undefined)
TGI (786-0 renal): > 100 µM
TGI (OVCAR-5 ovarian): > 100 µM
TGI (SK-MEL-5 melanoma): > 100 µM
TGI (COLO 205 colon): > 100 µM
TGI (U251 CNS): > 100 µM
TGI (NCI-H460 lung): > 100 µM
TGI (HOP-92 NSCLC): > 100 µM
TGI (SF-539 CNS): > 100 µM

COc1cc(OC)c(C2c3cc4c(cc3OC(N3CCOCC3)C2C)OCO4)c(OC)c1 (centres undefined)
TGI (786-0 renal): > 100 µM
TGI (OVCAR-5 ovarian): > 100 µM
TGI (DU-145 prostate): > 100 µM
TGI (MCF7 breast): > 100 µM
TGI (SK-MEL-5 melanoma): > 100 µM
TGI (COLO 205 colon): > 100 µM
TGI (NCI-H460 lung): > 100 µM
TGI (SF-539 CNS): > 100 µM

CCCC[C@@H]1CCN2C[C@@H](O)[C@@H](O)[C@H]2[C@@H]1O
TGI (786-0 renal): > 100 µM
TGI (OVCAR-5 ovarian): > 100 µM
TGI (MCF7 breast): > 100 µM
TGI (SK-MEL-5 melanoma): > 100 µM
TGI (COLO 205 colon): > 100 µM
TGI (U251 CNS): > 100 µM
TGI (NCI-H460 lung): > 100 µM
TGI (HOP-92 NSCLC): > 100 µM
TGI (SF-539 CNS): > 100 µM

CCOC(=O)C(NC(=O)c1ccc(N=NN(C)C)cc1)C(C)C (centres undefined)
TGI (786-0 renal): > 100 µM
TGI (OVCAR-5 ovarian): > 100 µM
TGI (SK-MEL-5 melanoma): > 100 µM
TGI (COLO 205 colon): > 100 µM
TGI (U251 CNS): > 100 µM
TGI (NCI-H460 lung): > 100 µM
TGI (SF-539 CNS): > 100 µM

NNC(=O)c1cccc2c1Oc1ccccc1S2
TGI (786-0 renal): > 100 µM
TGI (DU-145 prostate): > 100 µM
TGI (MCF7 breast): > 100 µM
TGI (SK-MEL-5 melanoma): > 100 µM
TGI (COLO 205 colon): > 100 µM
TGI (U251 CNS): > 100 µM
TGI (NCI-H460 lung): > 100 µM
TGI (HOP-92 NSCLC): > 100 µM
TGI (SF-539 CNS): > 100 µM

COc1cc2c(cc1OCCCOc1cc3c(cc1OC)C(=O)N1CCC[C@H]1CN3)N=C[C@@H]1CCCN1C2=O
TGI (786-0 renal): 2.18 µM
TGI (OVCAR-5 ovarian): 1.32 µM
TGI (DU-145 prostate): > 37.7 µM
TGI (SF-539 CNS): 0.411 µM

Nc1nc(Nc2ccc(OCc3cccc(F)c3)cc2)c2c(n1)[nH]c1ccc(O)cc12
GI50 (OVCAR-5 ovarian): 3.38 µM
TGI (OVCAR-5 ovarian): 14.5 µM
GI50 (DU-145 prostate): 4.22 µM
TGI (DU-145 prostate): 15.6 µM
GI50 (MCF7 breast): 2.87 µM
TGI (MCF7 breast): 11.8 µM
GI50 (SK-MEL-5 melanoma): 4.17 µM
TGI (SK-MEL-5 melanoma): 15.2 µM
GI50 (COLO 205 colon): 2.42 µM
TGI (COLO 205 colon): 5.98 µM
GI50 (U251 CNS): 2.44 µM
TGI (U251 CNS): 6.09 µM
GI50 (NCI-H460 lung): 3.25 µM
TGI (NCI-H460 lung): 9.37 µM
GI50 (HOP-92 NSCLC): 2.37 µM
TGI (HOP-92 NSCLC): 7.98 µM
GI50 (SF-539 CNS): 1.79 µM
TGI (SF-539 CNS): 3.31 µM
